From the supplement of paper PMC10307832

Tests used:
Experiment in all cases: relative viability (nuclei count vs DMSO), 5 days (fraction); higher = more cells survive
EMC-BAC-2 = system: EMC-BAC-2
Outline: (§1)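 Lung cancer cell lines were seeded in 1536-well plates and dosed by pin tool the next day, with either a single drug or a fixed anchor-drug dose combined with five library-drug doses (not always all listed) spaced in √10 steps. Five days later, one step fixed the cells and stained their nuclei (final 0.05% Triton X-100, 1% formaldehyde, 1 ug/ml Hoechst), and nuclei were counted on 4× images. Relative viability is the nuclei count in treated wells divided by the count in vehicle wells, and each value is the median of duplicate plates.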

EPLC-272H = system: EPLC-272H
Outline: as §1

H3255 = system: H3255
Outline: as §1

HOP-62 = system: HOP-62
Outline: as §1

LCLC-97TM1 = system: LCLC-97TM1
Outline: as §1

LXF-289 = system: LXF-289
Outline: as §1

NCI-H1563 = system: NCI-H1563
Outline: as §1

NCI-H1650 = system: NCI-H1650
Outline: as §1

NCI-H1915 = system: NCI-H1915
Outline: as §1

NCI-H1993 = system: NCI-H1993
Outline: as §1

NCI-H2009 = system: NCI-H2009
Outline: as §1

NCI-H2023 = details: first compound 0.08 µM
Outline: as §1

For C=C1C(=O)O[C@@H](CCCCCCCC)[C@@H]1C(=O)O [C-75] + CCNC(=O)c1noc(-c2cc(C(C)C)c(O)cc2O)c1-c1ccc(CN2CCOCC2)cc1 [Luminespib] (partner 0.01 µM), the relative viability (EMC-BAC-2; first compound 0.08 µM) was 1.25, the relative viability (EMC-BAC-2; first compound 0.253 µM) was 1.24 and the relative viability (EMC-BAC-2; first compound 0.8 µM) was 1.05. For the same compound, the relative viability (EMC-BAC-2; first compound 2.53 µM) was 0.876, the relative viability (EMC-BAC-2; first compound 8 µM) was 1.18 and the relative viability (EPLC-272H; first compound 0.08 µM) was 0.302. It also gave a relative viability (EPLC-272H; first compound 0.253 µM) of 0.308, a relative viability (EPLC-272H; first compound 0.8 µM) of 0.297 and a relative viability (EPLC-272H; first compound 2.53 µM) of 0.202. It also gave a relative viability (EPLC-272H; first compound 8 µM) of 0.159, a relative viability (H3255; first compound 0.08 µM) of 0.935 and a relative viability (H3255; first compound 0.253 µM) of 1.02. It also gave a relative viability (H3255; first compound 0.8 µM) of 0.794, a relative viability (H3255; first compound 2.53 µM) of 0.723 and a relative viability (H3255; first compound 8 µM) of 0.977. For the same compound, the relative viability (HOP-62; first compound 0.08 µM) was 0.858, the relative viability (HOP-62; first compound 0.253 µM) was 0.945 and the relative viability (HOP-62; first compound 0.8 µM) was 0.902. It also gave a relative viability (HOP-62; first compound 2.53 µM) of 0.909, a relative viability (HOP-62; first compound 8 µM) of 0.801 and a relative viability (LCLC-97TM1; first compound 0.08 µM) of 0.731. It also gave a relative viability (LCLC-97TM1; first compound 0.253 µM) of 0.808, a relative viability (LCLC-97TM1; first compound 0.8 µM) of 0.852 and a relative viability (LCLC-97TM1; first compound 2.53 µM) of 0.452. For the same compound, the relative viability (LCLC-97TM1; first compound 8 µM) was 0.801, the relative viability (LXF-289; first compound 0.08 µM) was 0.599 and the relative viability (LXF-289; first compound 0.253 µM) was 0.66. It also gave a relative viability (LXF-289; first compound 0.8 µM) of 0.671, a relative viability (LXF-289; first compound 2.53 µM) of 0.641 and a relative viability (LXF-289; first compound 8 µM) of 0.702. The relative viability (NCI-H1563; first compound 0.08 µM) was 0.498, the relative viability (NCI-H1563; first compound 0.253 µM) was 0.535 and the relative viability (NCI-H1563; first compound 0.8 µM) was 0.531. For the same compound, the relative viability (NCI-H1563; first compound 2.53 µM) was 0.483, the relative viability (NCI-H1563; first compound 8 µM) was 0.557 and the relative viability (NCI-H1650; first compound 0.08 µM) was 0.215. For the same compound, the relative viability (NCI-H1650; first compound 0.253 µM) was 0.194, the relative viability (NCI-H1650; first compound 2.53 µM) was 0.141 and the relative viability (NCI-H1650; first compound 8 µM) was 0.211. For the same compound, the relative viability (NCI-H1915; first compound 0.08 µM) was 0.694, the relative viability (NCI-H1915; first compound 0.253 µM) was 0.768 and the relative viability (NCI-H1915; first compound 0.8 µM) was 0.798. The relative viability (NCI-H1915; first compound 2.53 µM) was 0.717, the relative viability (NCI-H1915; first compound 8 µM) was 0.677 and the relative viability (NCI-H1993; first compound 0.08 µM) was 0.988. For the same compound, the relative viability (NCI-H1993; first compound 0.253 µM) was 0.806, the relative viability (NCI-H1993; first compound 0.8 µM) was 0.787 and the relative viability (NCI-H1993; first compound 2.53 µM) was 0.875. For the same compound, the relative viability (NCI-H1993; first compound 8 µM) was 0.83, the relative viability (NCI-H2009; first compound 0.08 µM) was 1.02 and the relative viability (NCI-H2009; first compound 0.253 µM) was 1.05. It also gave a relative viability (NCI-H2009; first compound 0.8 µM) of 1, a relative viability (NCI-H2009; first compound 2.53 µM) of 0.999 and a relative viability (NCI-H2009; first compound 8 µM) of 0.793. For the same compound, the relative viability (NCI-H2023) was 0.746.
